Experiments:
G1 APOL1 = molecular target: T1, G1 APOL1 (Homo sapiens, UniProt O14791, I384M/S342G); experiment: Acute APOL1 Thallium Assay with Inducible Stable Clones of HEK 293 Cells; type: cell-based; details: HEK 293 inducible stable clones, G1 APOL1; read-out: Thallium Assay (IC50)
T1 construct: expressed in transfected cells
T1 sequence (O14791 28-398 S342G/I384M): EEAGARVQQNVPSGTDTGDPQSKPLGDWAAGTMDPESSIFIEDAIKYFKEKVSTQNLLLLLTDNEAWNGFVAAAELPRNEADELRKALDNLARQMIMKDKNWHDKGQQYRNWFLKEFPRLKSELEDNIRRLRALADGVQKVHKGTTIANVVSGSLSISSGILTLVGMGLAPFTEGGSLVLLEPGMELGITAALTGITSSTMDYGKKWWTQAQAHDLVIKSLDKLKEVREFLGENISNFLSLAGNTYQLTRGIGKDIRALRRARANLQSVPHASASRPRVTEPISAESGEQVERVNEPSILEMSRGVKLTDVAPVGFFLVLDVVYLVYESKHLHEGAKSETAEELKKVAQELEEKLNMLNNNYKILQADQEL
In short: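 Pore activity was read as the fluorescence increase from Tl+ entering cells loaded with an AM-ester thallium indicator dye. The cells were tetracycline-inducible HEK293 T-Rex expressing G1 APOL1 (clone DC3.25), induced when plated at 26000 per well and incubated at 37° C.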

APOL1 G1 Protein = molecular target: T2, APOL1 G1 Protein (Homo sapiens, UniProt O14791, I384M/S342G); experiment: Trypanosoma brucei brucei Lysis Assay Using APOL1 Recombinant Protein (AlamarBlue viability); type: cell-based; details: read-out: Trypanosomal Assay (IC50)
T2 sequence (O14791 28-398 S342G/I384M): T1 sequence (O14791 28-398 S342G/I384M)
In short: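 Lister 427 bloodstream-form trypanosomes seeded at 120,000 per well in phenol-red-free, serum-free medium and lysed with recombinant APOL1 variant protein. Viability read by AlamarBlue (resazurin) fluorescence. Percent viability relative to untreated wells, interpolated from a standard curve of seeded parasites.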

IC50 (G1 APOL1) [µM] | Compound | IC50 (APOL1 G1 Protein) [µM]
0.25 to 1 | C[C@H](O)[C@H](CO)NC(=O)CCc1c(-c2ccc(F)cc2)[nH]c2ccc(F)cc12 [Compound 28] | > 1
> 1 | O=C(CCc1c(-c2ccc(F)cc2)[nH]c2c(F)cc(F)cc12)NCc1ncc[nH]1 [Compound 134] | > 1
> 1 | O=C(CCc1c(-c2ccccc2)[nH]c2ccc(F)cc12)NCCO [Compound 236] | > 1
< 0.25 | N#CC(CO)NC(=O)CCc1c(-c2ccc(F)cc2)[nH]c2c(F)cc(F)cc12 (stereo not drawn) [Compound 106] | 0.25 to 1
> 1 | NC1CCC(NC(=O)CCc2c(-c3ccc(F)cc3)[nH]c3ccc(F)cc23)C1 (stereo not drawn) [Compound 7] | > 1
> 1 | NC(=O)C1(NC(=O)CCc2c(-c3ccc(F)cc3)[nH]c3ccc(F)cc23)CC1 [Compound 20] | > 1
0.25 to 1 | O=C(CCc1c(-c2ccc(F)cc2)[nH]c2ccc(F)cc12)NC(CO)CF (stereo not drawn) [Compound 90] | < 0.25
0.25 to 1 | O=C(CCc1c(-c2ccc(F)cc2)[nH]c2ccc(F)cc12)NC1(CO)COC1 [Compound 32] | 0.25 to 1
> 1 | CC1(NC(=O)CCc2c(-c3ccc(F)cc3)[nH]c3c(F)cc(F)cc23)CCOC1=O (racemic) [Compound 105] | 0.25 to 1
> 1 | O=C(CCc1c(-c2ccc(F)cc2)[nH]c2c(F)cc(Br)cc12)N[C@H](CO)C(F)(F)F [Compound 228] | > 1
> 1 | O=C(CCc1c(-c2ccc(F)cc2)[nH]c2ccc(F)cc12)N[C@H]1C[C@@H]1c1ccccc1 [Compound 23] | > 1
> 1 | O=C(CCc1c(-c2ccc(F)cc2)[nH]c2c(F)cc(F)cc12)NC1(CO)CCOC1 (stereo not drawn) [Compound 116] | > 1
> 1 | O=C(CCc1c(-c2ccc(F)cc2)[nH]c2c(F)cc(F)cc12)NC[C@@H](O)C(F)(F)F [Compound 137] | > 1
> 1 | O=C(CCc1c(-c2ccc(F)cc2)[nH]c2ccccc12)NC1CC1 [Compound 238] | > 1
> 1 | CS(=O)(=O)CNC(=O)CCc1c(-c2ccc(F)cc2)[nH]c2c(F)cc(F)cc12 [Compound 173] | > 1
0.25 to 1 | O=C(CCc1c(-c2ccc(F)cc2)[nH]c2ccc(F)cc12)Nc1cc[nH]n1 [Compound 70] | > 1
> 1 | NC(=O)C(CO)NC(=O)CCc1c(-c2ccc(F)cc2)[nH]c2ccc(F)cc12 (stereo not drawn) [Compound 36] | > 1
> 1 | O=C(CCc1c(-c2ccc(F)cc2)[nH]c2ccc(F)cc12)N[C@H](CO)C(F)(F)F [Compound 50] | > 1
< 0.25 | O=C(CCc1c(-c2ccc(F)cc2)[nH]c2ccc(F)cc12)NC1(CO)CCC1 [Compound 4] | < 0.25
> 1 | CC(C)(C)OC(=O)N1C[C@H](NC(=O)CCc2c(-c3ccc(F)cc3)[nH]c3ccc(F)cc23)[C@@H](O)C1 [Compound 76] | > 1
> 1 | O=C(CCc1c(-c2ccc(F)cc2)[nH]c2c(F)cc(F)cc12)NCc1cnn(C2CC(F)(F)C2)c1 [Compound 176] | > 1
< 0.25 | NCCCCc1c(-c2ccc(F)cc2)[nH]c2c(F)cc(F)cc12 [Compound 511, 4-[5,7-difluoro-2-(4-fluorophenyl)-1H-indol-3-yl]butan-1-amine] | < 0.25
> 1 | CC(C)C(CO)NC(=O)CCc1c(-c2ccc(F)cc2)[nH]c2ccc(F)cc12 (stereo not drawn) [Compound 75] | > 1
> 1 | O=C(CCc1c(-c2ccc(F)cc2)[nH]c2c(F)cc(F)cc12)N1CCC[C@H]1CO [Compound 145] | > 1
> 1 | CC1(O)CCN(C(=O)CCc2c(-c3ccc(F)cc3)[nH]c3ccc(F)cc23)C1 (racemic) [Compound 88] | > 1
> 1 | O=C(CCc1c(-c2ccc(F)cc2)[nH]c2ccc(F)cc12)N1CCCC(O)C1 (stereo not drawn) [Compound 81] | > 1
0.25 to 1 | O=C(NCCCc1c(-c2ccc(F)cc2)[nH]c2ccc(F)cc12)C(F)F [Compound 506] | 0.25 to 1

More lines, now with the values behind:

Compound | IC50 (G1 APOL1) [µM] | IC50 (APOL1 G1 Protein) [µM]
O=C(CCc1c(-c2ccc(F)cc2)[nH]c2ccc(F)cc12)N1CCC(F)C1 (stereo not drawn) [Compound 55] | > 1 | > 1
CC(C)(C)OC(=O)N[C@H]1C[C@H](NC(=O)CCc2c(-c3ccc(F)cc3)[nH]c3ccc(F)cc23)C1 [Compound 57] | > 1 | > 1
O=C(CCc1c(-c2ccc(F)cc2)[nH]c2ccc(F)cc12)NC(CO)C1CC1 (stereo not drawn) [Compound 21] | 0.25 to 1 | 0.25 to 1
O=C1CCC(NC(=O)CCc2c(-c3ccc(F)cc3)[nH]c3c(F)cc(F)cc23)C(=O)N1 (stereo not drawn) [Compound 190] | > 1 | > 1
O=C(CCc1c(-c2ccc(F)cc2)[nH]c2c(F)cc(F)cc12)NC1CC1(F)F (stereo not drawn) [Compound 142] | > 1 | > 1
CC(=O)NCCCc1c(-c2ccc(F)cc2)[nH]c2c(F)cc(F)cc12 [Compound 505, N-[3-[5,7-difluoro-2-(4-fluorophenyl)-1H-indol-3-yl]propyl]acetamide] | < 0.25 | 0.25 to 1
O=C(CCc1c(-c2ccc(F)cc2)[nH]c2ccc(F)cc12)N[C@@H](CO)C(F)(F)F [Compound 1, 3-[5-fluoro-2-(4-fluorophenyl)-1H-indol-3-yl]-N-[(1S)-2,2,2-trifluoro-1-(hydroxymethyl)ethyl]propanamide] | < 0.25 | < 0.25
O=C(CCc1c(-c2ccc(F)cc2)[nH]c2c(F)cc(F)cc12)NCCC(=O)N1CC(O)C1 [Compound 191] | > 1 | > 1
CNC(=O)C(C)NC(=O)CCc1c(-c2ccc(F)cc2)[nH]c2ccc(F)cc12 (racemic) [Compound 11] | 0.25 to 1 | 0.25 to 1
CC(=O)NCCCCc1c(-c2ccc(F)cc2)[nH]c2c(F)cc(F)cc12 [Compound 512, N-[4-[5,7-difluoro-2-(4-fluorophenyl)-1H-indol-3-yl]butyl]acetamide] | 0.25 to 1 | 0.25 to 1
O=C(CCc1c(-c2ccc(F)cc2)[nH]c2c(F)cc(F)cc12)N1CC(CO)C1 [Compound 104] | > 1 | > 1
Cc1cnc(NC(=O)CCc2c(-c3ccc(F)cc3)[nH]c3c(F)cc(F)cc23)o1 [Compound 172] | > 1 | > 1
C[C@H](NC(=O)CCc1c(-c2ccc(F)cc2)[nH]c2ccc(F)cc12)C(N)=O [Compound 61] | > 1 | > 1
O=C(CCc1c(-c2ccc(F)cc2)[nH]c2c(F)cc(F)cc12)NCc1cnn(CC(F)(F)F)c1 [Compound 186] | > 1 | > 1
O=C(CCc1c(-c2ccc(F)cc2)[nH]c2ccc(F)cc12)NCCO [Compound 25] | > 1 | > 1
O=C(CCc1c(-c2ccc(F)cc2)[nH]c2c(F)cc(F)cc12)NC1(CCO)CC1 [Compound 154] | > 1 | > 1
O=C(CCc1c(-c2ccc(F)cc2)[nH]c2ccc(F)cc12)NC1CC1c1ccc(F)cc1 (stereo not drawn) [Compound 44] | > 1 | > 1
O=C(CCc1c(-c2ccc(F)cc2)[nH]c2c(F)cc(F)cc12)Nc1ccc[nH]c1=O [Compound 175] | > 1 | > 1

Reference: patent US20230014907A1, “INHIBITORS OF APOL1 AND METHODS OF USING SAME” (Vertex Pharmaceuticals Incorporated, priority 2020, published 2023)
